This note sets out measurements from ChEMBL document CHEMBL3525952, “A Baeyer-Villiger oxidation specifically catalyzed by human flavin-containing monooxygenase 5” (Drug Metab Dispos, 2011).

In data set [1] the target is T1, Flavin-containing monooxygenase 5 (Homo sapiens, UniProt P49326).
T1 sequence (P49326 whole entry): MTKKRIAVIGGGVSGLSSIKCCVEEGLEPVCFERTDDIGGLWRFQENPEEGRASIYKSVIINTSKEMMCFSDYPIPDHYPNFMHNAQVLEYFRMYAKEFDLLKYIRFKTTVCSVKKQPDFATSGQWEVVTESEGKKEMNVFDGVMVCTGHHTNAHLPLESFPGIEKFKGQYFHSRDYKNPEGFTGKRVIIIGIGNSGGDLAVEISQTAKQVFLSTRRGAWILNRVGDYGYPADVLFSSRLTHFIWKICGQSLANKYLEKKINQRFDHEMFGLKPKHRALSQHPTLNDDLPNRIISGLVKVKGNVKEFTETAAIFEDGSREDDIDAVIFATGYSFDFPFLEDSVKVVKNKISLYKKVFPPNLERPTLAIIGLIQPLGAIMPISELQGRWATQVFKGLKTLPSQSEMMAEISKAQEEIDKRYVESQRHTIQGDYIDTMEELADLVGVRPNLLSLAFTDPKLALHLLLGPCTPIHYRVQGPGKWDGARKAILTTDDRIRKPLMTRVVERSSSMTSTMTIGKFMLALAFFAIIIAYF
The experiment in a line: Drug level assessed as human recombinant FMO5-mediated compound formation from 10 uM ER-879819 in presence NADPH after 60 mins by LC-MS/MS method. The class given is ADME. The settings on record: recombinant enzyme, 1 h.

Data set [2] addresses T1, Flavin-containing monooxygenase 5. Briefly: Drug level assessed as human recombinant FMO5-mediated compound formation from 10 uM ER-879819 in presence NADH after 60 mins by LC-MS/MS method. In kind it is ADME. To be noted: recombinant enzyme, 1 h.
Data set [3] in a line: Drug level in dog hepatocytes treated with 50 uM E7016 after 120 mins in presence of NADPH by LC-MS/MS method. The class given is ADME, cell-based, Canis lupus familiaris, Hepatocyte. The settings on record: 2 h.
Data set [4] relates to Hepatocyte. The experiment in a line: Drug level in rat hepatocytes treated with 50 uM E7016 after 120 mins in presence of NADPH by LC-MS/MS method. The settings on record: 2 h. The class given is ADME, cell-based.
For data set [5], the system named is Hepatocyte. Briefly: Drug level in human hepatocytes treated with 50 uM E7016 after 120 mins in presence of NADPH by LC-MS/MS method. In kind it is ADME, cell-based. The settings on record: 2 h.
The nature of data set [6]: Drug level in dog liver S9 fraction treated with 50 uM E7016 after 60 mins in presence of NAD+ by LC-MS/MS method. In kind it is ADME, subcellular, Canis lupus familiaris. The settings on record: s9, 1 h.
Data set [7] can be described thus: Drug level in dog liver S9 fraction treated with 50 uM E7016 after 60 mins in presence of NADP+ by LC-MS/MS method. The class given is ADME, subcellular, Canis lupus familiaris. To be noted: s9, 1 h.
A short description of data set [8]: Drug level in human liver S9 fraction treated with 50 uM E7016 after 60 mins in presence of NAD+ by LC-MS/MS method. The class given is ADME, subcellular. To be noted: s9, 1 h.
A short description of data set [9]: Drug level in human liver S9 fraction treated with 50 uM E7016 after 60 mins in presence of NADP+ by LC-MS/MS method. To be noted: s9, 1 h. The class given is ADME, subcellular.
Data set [10] concerns the target T1, Flavin-containing monooxygenase 5. Briefly: Drug metabolism assessed as human recombinant FMO5-mediated compound formation from 50 uM E7016 in presence of rat liver cytosolic fractions after 60 mins by LC-MS/MS method. The class given is ADME, tissue-based. The settings on record: recombinant enzyme, 1 h.
The target is the same in data set [11]. The experiment in a line: Drug metabolism assessed as human recombinant FMO5-mediated compound formation from 50 uM E7016 in presence of human liver cytosolic fractions after 60 mins by LC-MS/MS method. In kind it is ADME, tissue-based. To be noted: recombinant enzyme, 1 h.
Data set [12] shares this target. The experiment in a line: Drug metabolism assessed as human recombinant FMO5-mediated compound formation from 50 uM E7016 in presence of dog liver cytosolic fractions after 60 mins by LC-MS/MS method. The class given is ADME, tissue-based. The settings on record: recombinant enzyme, 1 h.
The subject of data set [13] is Liver microsome. Briefly: Drug level in dog liver microsomes treated with 10 uM ER-879819 after 60 mins in presence of NADH by LC-MS/MS method. In kind it is ADME, Canis lupus familiaris. To be noted: 1 h.
Data set [14] concerns Liver microsome. The experiment in a line: Drug level in human liver microsomes treated with 10 uM ER-879819 after 60 mins in presence of NADH by LC-MS/MS method. In kind it is ADME. The settings on record: 1 h.
A short description of data set [15]: Retention time of the compound by HPLC analysis. The class given is physicochemical.

As for `O=C(O)CCN(CCO)Cc1ccc2c(c1)-c1n[nH]c(=O)c3cccc(c13)O2`, the Drug metabolism result in data set [1], in data set [2], in data set [3], in data set [4], in data set [5] and in data set [6] was “metabolite_detected” in each case. Moreover, the Drug metabolism result in data set [7], in data set [8], in data set [9], in [10], in data set [11] and in data set [12] was “metabolite_detected” in each case. Moreover, the Drug metabolism result in data set [13] and in data set [14] was “metabolite_detected” throughout.

In data set [15], `Cc1ccc2c(c1)-c1n[nH]c(=O)c3cccc(c13)O2` displayed a Retention_time of 10.7 min.
